The test system of series [1] is wild-type HSV-1 strain F. The series is described as follows: Anti-HSV-1 plaque reduction assay (PRA) on supernatants of infected U2OS cells. Particulars: for IC50: MOI 1, supernatants at 24 h.p.i., plaque reduction assay, read-out: IC50 (concentration able to perform 50% inhibition of HSV-1 production). The class given is cell-based. The protocol:
(§1) Quindoline-derived compounds were first screened for their anti-herpetic activity. Increasing concentrations of compounds (from 25 to 400 nM) were added to U2OS cells infected with wild-type HSV-1 strain F at a MOI of 1. Supernatants were collected at 24 hours post infection (h.p.i.) and the reduction of viral particles production was determined by plaque reduction assay (PRA) (see, Artusi S., et al., Antiviral Res. 2015; 118:123-31; Callegaro S., et al., Sci. Rep. 2017; 7: 2341). Antiviral activities were determined as the concentration of compounds able to perform 50% inhibition of HSV-1 production (IC50). Cytotoxicity effects were evaluated in parallel by MTT assay and reported as the concentration of compounds able to kill 50% of the cells (CC50). The selectivity index (SI) was calculated as the ratio of CC50 to IC50.

Series [2] deals with U2OS (Human osteosarcoma cell line). The series is described as follows: Cytotoxicity by MTT assay. In kind it is cell-based. Conditions: U2OS cells, read-out: CC50 (concentration able to kill 50% of the cells). The protocol:
as §1, with “Increasing concentrations of compounds (from 25 to 400 nM) were added to U2OS cells infected with wild-type HSV-1 strain F at a MOI of 1.” left out

A short description of series [3]: Cytotoxicity by MTT assay. Particulars: human, U2OS cells (osteosarcoma cell line), read-out: CC50 (concentration able to kill 50% of the cells). The class given is cell-based, Human. The protocol:
as §1, with “Increasing concentrations of compounds (from 25 to 400 nM) were added to U2OS cells infected with wild-type HSV-1 strain F at a MOI of 1.” left out

Series [4] has as its system HSV-1. The series is described as follows: Time of addition (TOA) assay in HSV-1-infected U2OS cells. Particulars: non-toxic concentration, added every 2 hours up to 10 h.p.i., supernatants at 30 h.p.i. titrated by PRA. In kind it is cell-based. The protocol: To assess the main and temporally last viral step targeted by the most promising compound, GSA-0932, a time of addition (TOA) assay was performed (see, FIG. 2) (see, Artusi S., et al., Antiviral Res. 2015; 118:123-31; Callegaro S., et al., Sci. Rep. 2017; 7: 2341; Daelemans D., et al., Nat. Protoc. 2011; 6(6):925-33). This experiment permits determination of how long the addition of a compound can be postponed before it loses its antiviral activity. Since the HSV-1 replication cycle proceeds in a well-established chronological order, it is possible to investigate the last viral process targeted by a compound comparing its action to that of a reference drug in the time frame of replication events. The well characterized anti-HSV drug Acyclovir (ACV) was considered as reference (see, Artusi S., et al., Antiviral Res. 2015; 118:123-31; Callegaro S., et al., Sci. Rep. 2017; 7: 2341). HSV-1-infected U2OS cells were treated with a non-toxic concentration of GSA-0932 at different times post-infection (corresponding to different viral cycle steps): every 2 hours up to 10 h.p.i. Supernatants were collected at 30 h.p.i. and then titrated by PRA.

Series [5] relates to HSV-1 un3 G-quadruplex folding sequence. The series is described as follows: Circular dichroism (CD) melting of G-quadruplex, un3. In kind it is binding. The protocol:
(§2) Circular dichroism (CD) was conducted to evaluate the binding and stabilizing activity of GSA-0932 to HSV-1 G-quadruplex structures (G4s). Three sequences were considered: two sequences forming a four-stacked-G-quartet structure (un2 and gp054a) and one forming a three-G-quartet G4 (un3) (see, Artusi S., et al., Antiviral Res. 2015; 118:123-31). HSV-1 G4s were analyzed at a final concentration of 4 μM in the presence of the physiological K^+ concentration (100 mM) or in the presence of lower K^+ concentration (2.5 mM) in order to better appreciate the effect of the compound in the case of extremely stable G4 structures (e.g. un2 sequence). Oligonucleotides were also analyzed in the absence or presence of 4-folds excess of GSA-0932.

The test system of series [6] is HSV-1 un2 G-quadruplex folding sequence. The series is described as follows: Circular dichroism (CD) melting of G-quadruplex, un2. The class given is binding. Conditions: un2 4 μM + 16 μM GSA-0932, K+ 2.5 mM. The protocol:
as §2

For series [7], the system named is HSV-1 gp054a G-quadruplex folding sequence. The series is described as follows: Circular dichroism (CD) melting of G-quadruplex, gp054a. Conditions: for Tm, first value: first of two printed Tm; for Tm, second value: second of two printed Tm. In kind it is binding. The protocol: as §2
The subject of series [8] is un2, un3 and gp054a G-quadruplex forming templates. The series is described as follows: Taq polymerase stop assay, G-quadruplex templates. The class given is biochemical, HSV-1. Conditions: 2-8 μM compound; un3 at 50 mM K+, un2 and gp054a at 0.5 mM K+. The protocol:
(§3) FIG. 3: Taq polymerase stop assay. A) Image of a typical Taq polymerase stop assay. The un2, un3, gp054a template were amplified by Taq polymerase in the absence (lanes 5-9-13) and in the presence of K^+, combined with increasing amounts (2-8 μM) of GSA-0932 (lanes 7-8, 11-12, 15-16) or same amount of DMSO as that in the ligand (lanes 6-10-14). Un3 was analyzed at 50 mM of K^+, while the other sequences were investigated at 0.5 mM of K^+. A template (non-G4 ctrl) unable to fold into G4 was also used as control (lanes 1-4). P stands for unreacted labeled primer, FL stands for full length product. G4-specific Taq polymerase stop sites are highlighted by vertical bars. Quantification of stop bands corresponding to G4 and of the full length amplification product (FL) is shown.
To confirm the increased stability of the viral G-quadruplexes in the presence of GSA-0932, a Taq polymerase stop assay was next set up (FIG. 3). Extended un2, un3 and gp054a forming sequences were used, containing additional flanking bases at the 3′-end: a primer annealing sequence and a 5-T linker region to separate the annealing sequence from the first G of the G-tract.
(§4) Un3 was analyzed at 50 mM of K^+, while the FIG. 3 other sequences were investigated at 0.5 mM of K^+ due to their higher stability.

In series [9] the test system is control DNA template unable to fold into G-quadruplex. The series is described as follows: Taq polymerase stop assay, non-G4 control template. In kind it is biochemical. Particulars: non-G4 ctrl template. The protocol:
as §3, §4

Series [10] has as its system un3 G-quadruplex-folded oligonucleotide. The series is described as follows: Competition ESI-MS binding, un3. On the set-up: species or system HSV-1. Particulars: competing G4s un3/hTel, oligonucleotides 4 μM, DNA:compound 1:1.5, overnight 4° C. The protocol:
(§5) Competition electrospray ionization mass spectrometry (ESI-MS) experiments were performed in order to check the binding selectivity of GSA-0932 toward different G-quadruplex forming sequences (see, Callegaro S., et al., Sci. Rep. 2017; 7: 2341; Yuan G., et al., Mass Spectrom. Rev. 2011, 30, 1121-114210.1002/mas.20315). The viral un3, un2 and gp054a G4s were analyzed against the selected competitor hTel, the G-quadruplex-forming sequence of the human telomeric repeat, the most abundant cellular G-quadruplex. The oligonucleotides were diluted to final concentration of 4 μM and incubated with the compound at ratio DNA:compound 1:1.5 overnight at 4° C. Samples were analyzed by a Xevo G2-XS QT of mass spectrometer (Waters, Manchester, UK). Binding affinities were calculated for each experiment using the peak intensity for each species measured by MassLynx V4.1.

The subject of series [11] is un2 G-quadruplex-folded oligonucleotide. The series is described as follows: Competition ESI-MS binding, un2. Details: species or system HSV-1. Conditions: competing G4s un2/hTel, oligonucleotides 4 μM, DNA:compound 1:1.5, overnight 4° C. The protocol:
as §5

Series [12] deals with gp054a G-quadruplex-folded oligonucleotide. The series is described as follows: Competition ESI-MS binding, gp054a. On the set-up: species or system HSV-1. Conditions: competing G4s gp054a/hTel, oligonucleotides 4 μM, DNA:compound 1:1.5, overnight 4° C. The protocol: as §5
Series [13] has as its system hTel, the G-quadruplex-forming sequence of the human telomeric repeat. The series is described as follows: Competition ESI-MS binding, hTel. Particulars: oligonucleotides 4 μM, DNA:compound 1:1.5, overnight 4° C. The protocol:
as §5

[14] abbreviates: Human alphaherpesvirus 1, HSV-1 strain F.
[15] abbreviates: un3 4 μM + 16 μM GSA-0932, K+ 2.5 mM.
Setting [16] is: un3 4 μM + 16 μM GSA-0932, K+ 100 mM.
[17] abbreviates: gp054a 4 μM + 16 μM GSA-0932, K+ 2.5 mM.
Where [18] appears, read: gp054a 4 μM + 16 μM GSA-0932, K+ 100 mM.

Like-named read-outs stand apart in the source and are kept apart here.

As for `Cc1c2ccncc2c(C)c2c1[nH]c1ccc(OCCN(C)C)cc12` [GQC-05, reference compound], the IC50 in series [1] (HSV-1 strain F) was determined as 311 nM. For the same molecule, the CC50 in series [2] came out at 1650 nM.

As for `c1ccc2c3c4c(nc2c1)c1ccccc1n4CCCN3CCCN1CCOCC1` [GSA-0825], the “SI (selectivity index, ratio of CC50 to IC50)” value in series [1] is 91.64. Further, the IC50 in series [1] (setting [14]) is 357 nM. Further, the CC50 in [3] worked out at 32700 nM.

As for `CN1CCN(CCCN2CCCn3c4ccccc4c4nc5ccccc5c2c43)CC1` [GSA-0903], the “SI (selectivity index, ratio of CC50 to IC50)” value in series [1] is listed as less than 31.15. Also, the IC50 in series [1] (setting [14]) is more than 200 nM. In addition, the CC50 in [3] is 6230 nM.

As to `Cl.c1ccc2c3c4c(nc2c1)c1ccccc1n4CCCN3CCCN1CCCCCC1` [GSA-0920], the “SI (selectivity index, ratio of CC50 to IC50)” value in series [1] is on record as less than 9.05. Also, the IC50 in series [1] (setting [14]) was more than 400 nM. The CC50 in series [3] was 3620 nM.

As for `OC1CCN(CCN2CCCn3c4ccccc4c4nc5ccccc5c2c43)CC1` [GSA-0932], the “SI (selectivity index, ratio of CC50 to IC50)” value in series [1] stood at 112.9. The IC50 in series [1] (setting [14]) is 132 nM. Moreover, the CC50 in series [3] was found to be 14900 nM. For the same molecule, the “time of addition up to which infection was kept controlled” value in series [4] is given as “up to 6 h.p.i”. Moreover, the Tm in series [5] (setting [15]) was 56.4 ± 1.2 °C; in [5] (setting [16]), 66.4 °C; in series [6], more than 90 °C. Further, the ΔTm in [5] (setting [15]) was 18.8 ± 0.8 °C; in series [5] (setting [16]), 1.4 °C; in series [6], more than 7.5 °C; in series [7] (setting [17]) it was 15.6 °C. Moreover, the “Tm, first value” in series [7] (setting [17]) came to 74.5 °C; in series [7] (setting [18]), 74.7 °C. For the same molecule, the “Tm, second value” in series [7] (setting [17]) and in [7] (setting [18]) was more than 90 °C in each case. Further, the “ΔTm, first value” in series [7] (gp054a 4 μM + 16 μM GSA-0932, K+ 100 mM, first of two printed ΔTm) came to 17.4 °C. Also, the “ΔTm, second value” in series [7] (gp054a 4 μM + 16 μM GSA-0932, K+ 100 mM, second of two printed ΔTm) is more than 7.5 °C. For the same molecule, the “intensity of the G4 stop bands” value in [8] is “increased in a concentration dependent manner”. The “effect on control DNA template” value in [9] is on record as “no effect”. The “Relative binding affinity, un3” value in series [10] is listed as 50.3 ± 1.2. The “Relative binding affinity, un2” value in series [11] worked out at 38.9 ± 1.7. Moreover, the “Relative binding affinity, gp054a” value in series [12] was 57.3 ± 0.4. Besides, the entries for the “Relative binding affinity, Cell G4 (hTel)” value in series [13] (competing G4s un2/hTel) and in series [13] (competing G4s un3/hTel) were 11.1 ± 0.4 and 13.8 ± 0.2, respectively.

Take `c1ccc2c3c4c(nc2c1)c1ccccc1n4CCCN3CCCN1CCCCC1` [GSA-1202]: the “SI (selectivity index, ratio of CC50 to IC50)” value in series [1] was found to be 21.31. In addition, the IC50 in [1] (setting [14]) was 202 nM. In [3], the CC50 turned out to be 4320 nM.

Take `CN(C)CCN1CCCn2c3ccccc3c3nc4ccccc4c1c32` [GSA-1502]: in series [1], the “SI (selectivity index, ratio of CC50 to IC50)” value was found to be 68.70. For the same molecule, the IC50 in series [1] (setting [14]) came to 188 nM. Moreover, the CC50 in [3] stood at 12900 nM.

Turning to `CN(C)CCCN1CCCn2c3ccccc3c3nc4ccccc4c1c32` [GSA-1504], in series [1], the “SI (selectivity index, ratio of CC50 to IC50)” value came to 20.42. In addition, the IC50 in series [1] (setting [14]) came out at 225 nM. For the same molecule, in [3], the CC50 was 4600 nM.

As for `OC1CCC(CCN2CCCn3c4ccccc4c4nc5ccccc5c2c43)CC1` (centres unmarked) [GSA-1512], in [1], the “SI (selectivity index, ratio of CC50 to IC50)” value is on record as 70.78. Moreover, in series [1] (setting [14]), the IC50 is 256 nM. The CC50 in series [3] is 18100 nM.
